Usually IC50 stands for the concentration that gives 50% inhibition. For orientation: EC50 means the concentration at which the effect is half-maximal.

The values that follow come from patent US20140249135A1, “PIM KINASE INHIBITORS AND METHODS OF THEIR USE” (NOVARTIS AG, priority 2007, published 2014).

Where only a bound is given, the exact number is not on record here.

For one experiment, the target named is Pim2 kinase (Homo sapiens, UniProt Q9P1W9). Nature of the experiment: Pim2 ATP depletion assay.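 Note: Luciferase-based luminescent readout of ATP remaining after PIM2 phosphorylates a BAD peptide, final 5 nM enzyme, 4 µM ATP, 10 µM peptide, 2.5% DMSO, run to roughly half ATP consumption.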 As to conditions: read-out: IC50 (μM) PIM2. Format: biochemical.
Another experiment addresses Pim3 kinase (Homo sapiens, UniProt Q86V86). Nature of the experiment: Pim3 ATP depletion assay. As to conditions: read-out: IC50 (μM) PIM3. Type of experiment: biochemical.
The test system of another experiment is HEL 92.1.7 cells. The experiment is described as follows: Cell proliferation assay (CellTiter-Glo), HEL 92.1.7. The note with it: Homo sapiens, read-out: EC50 (μM) HEL 92.1.7. Type of experiment: cell-based. The gist of the method:
(§1)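 Cells in RPMI1640 with 10% FBS were seeded at 1000 cells/well and exposed to compound dilutions from DMSO stocks for 3 days at 37 °C. Viability was read by CellTiter-Glo luminescence. EC50 was derived from percent inhibition relative to DMSO-only and control-compound wells.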
(In general: ATP-based viability assays read luminescence as a measure of living cells.)

The subject of the next experiment is PC3 cells. Nature of the experiment: Cell proliferation assay (CellTiter-Glo), PC3. Format: cell-based. As to conditions: Homo sapiens, PC-3. The gist of the method:
as §1

The next experiment addresses KDR kinase (Homo sapiens, UniProt P35968). Nature of the experiment: KDR AlphaScreen assay. As to conditions: KDR IC50 (μM).
The next experiment has as its target Pim1 kinase (Homo sapiens, UniProt P11309). Nature of the experiment: Pim1 ATP depletion assay.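 Note: Luciferase-luciferin luminescence readout of residual ATP after PIM1 transfers phosphate to a peptide substrate, 40 µM ATP added, reaction run to roughly half ATP consumption.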 Format: biochemical. The note with it: Pim1 ATP depletion assay; read-out: IC50 (μM) PIM1.
For experiment [1], the target named is T1, human full length PKCE enzyme (Homo sapiens, UniProt Q02156).
T1 construct: human full length PKCE enzyme purchased from InVitrogen; purchased InVitrogen
T1 sequence (Q02156 1-737): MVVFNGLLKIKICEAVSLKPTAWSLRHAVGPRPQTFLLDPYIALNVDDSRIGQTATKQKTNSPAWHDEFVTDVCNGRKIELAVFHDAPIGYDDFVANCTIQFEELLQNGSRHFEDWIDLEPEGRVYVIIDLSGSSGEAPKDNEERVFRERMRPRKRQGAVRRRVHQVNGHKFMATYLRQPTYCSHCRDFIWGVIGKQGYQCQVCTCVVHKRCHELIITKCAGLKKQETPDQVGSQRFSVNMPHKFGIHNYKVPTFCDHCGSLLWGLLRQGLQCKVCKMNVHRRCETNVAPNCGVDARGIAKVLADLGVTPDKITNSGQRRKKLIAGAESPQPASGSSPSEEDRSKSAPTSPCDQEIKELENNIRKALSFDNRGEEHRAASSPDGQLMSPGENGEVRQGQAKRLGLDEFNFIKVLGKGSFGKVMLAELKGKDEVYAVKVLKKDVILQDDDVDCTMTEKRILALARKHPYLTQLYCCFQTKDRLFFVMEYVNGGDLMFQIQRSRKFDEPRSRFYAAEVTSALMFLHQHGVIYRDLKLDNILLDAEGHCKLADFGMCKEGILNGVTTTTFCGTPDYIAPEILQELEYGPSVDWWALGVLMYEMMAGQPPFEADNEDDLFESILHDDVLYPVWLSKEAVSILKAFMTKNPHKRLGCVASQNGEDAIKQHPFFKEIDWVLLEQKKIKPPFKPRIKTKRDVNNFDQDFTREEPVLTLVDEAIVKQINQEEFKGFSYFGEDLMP
The experiment is described as follows: In vitro PKCE assay. As to conditions: 10 nM enzyme, 40 uM peptide substrate, 20 uM ATP, KinaseGlo Plus readout; read-out: PKCε IC50. Format: biochemical.

The subject of experiment [2] is KMS 11 (human myeloma cell line). The experiment is described as follows: Cell proliferation assay (CellTiter-Glo), KMS 11. Format: cell-based. The note with it: KMS11 cells, read-out: EC50 (μM) KMS11. How it is done: (§2) KMS 11 (human myeloma cell line), were cultured in IMDM supplemented with 10% FBS, sodium pyruvate and antibiotics. Cells were plated in the same medium at a density of 2000 cells per well into 96 well tissue culture plates, with outside wells vacant, on the day of assay. MM1.s (human myeloma cell line), were cultured in RPMI1640 supplemented with 10% FBS, sodium pyruvate and antibiotics. Cells were plated in the same medium at a density of 5000 cells per well into 96 well tissue culture plates, with outside wells vacant, on the day of assay.
(§3) Test compounds supplied in DMSO were diluted into DMSO at 500 times the desired final concentrations before dilution into culture media to 2 times final concentrations. Equal volumes of 2× compounds were added to the cells in 96 well plates and incubated at 37° C. for 3 days.
(§4) After 3 days plates were equilibrated to room temperature and equal volume of CellTiter-Glow Reagent (Promega) was added to the culture wells. The plates were agitated briefly and luminescent signal was measured with luminometer. The percent inhibition of the signal seen in cells treated with DMSO alone vs. cells treated with control compound was calculated and used to determine EC50 values (i.e., the concentration of a test compound that is required to obtain 50% of the maximum effect in the cells) for tested compounds, as shown in Example 763.

Experiment [3] has as its system MM1.s (human myeloma cell line). The experiment is described as follows: Cell proliferation assay (CellTiter-Glo), MM1.s. Type of experiment: cell-based. As to conditions: MM1.s cells, read-out: EC50 (μM) MM1.s. How it is done:
as §2, §3, §4

Sequence of Pim2 kinase (Q9P1W9 whole entry): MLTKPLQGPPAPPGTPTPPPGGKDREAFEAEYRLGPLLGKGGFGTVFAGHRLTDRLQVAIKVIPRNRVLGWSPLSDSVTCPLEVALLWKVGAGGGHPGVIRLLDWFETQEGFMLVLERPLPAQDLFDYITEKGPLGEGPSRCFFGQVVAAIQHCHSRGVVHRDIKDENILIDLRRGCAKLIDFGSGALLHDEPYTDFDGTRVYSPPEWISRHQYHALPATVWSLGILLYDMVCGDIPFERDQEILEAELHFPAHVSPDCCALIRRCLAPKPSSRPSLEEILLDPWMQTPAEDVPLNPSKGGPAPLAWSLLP
Sequence of Pim1 kinase (P11309 whole entry): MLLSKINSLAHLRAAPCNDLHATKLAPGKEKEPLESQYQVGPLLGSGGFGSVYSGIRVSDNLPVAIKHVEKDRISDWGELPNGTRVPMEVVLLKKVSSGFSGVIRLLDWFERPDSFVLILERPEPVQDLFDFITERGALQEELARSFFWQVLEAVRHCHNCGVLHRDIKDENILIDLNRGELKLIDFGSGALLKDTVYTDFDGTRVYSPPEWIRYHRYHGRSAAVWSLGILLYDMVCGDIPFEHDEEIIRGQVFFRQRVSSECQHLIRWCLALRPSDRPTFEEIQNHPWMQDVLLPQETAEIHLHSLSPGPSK
Sequence of KDR kinase (P35968 20-1356): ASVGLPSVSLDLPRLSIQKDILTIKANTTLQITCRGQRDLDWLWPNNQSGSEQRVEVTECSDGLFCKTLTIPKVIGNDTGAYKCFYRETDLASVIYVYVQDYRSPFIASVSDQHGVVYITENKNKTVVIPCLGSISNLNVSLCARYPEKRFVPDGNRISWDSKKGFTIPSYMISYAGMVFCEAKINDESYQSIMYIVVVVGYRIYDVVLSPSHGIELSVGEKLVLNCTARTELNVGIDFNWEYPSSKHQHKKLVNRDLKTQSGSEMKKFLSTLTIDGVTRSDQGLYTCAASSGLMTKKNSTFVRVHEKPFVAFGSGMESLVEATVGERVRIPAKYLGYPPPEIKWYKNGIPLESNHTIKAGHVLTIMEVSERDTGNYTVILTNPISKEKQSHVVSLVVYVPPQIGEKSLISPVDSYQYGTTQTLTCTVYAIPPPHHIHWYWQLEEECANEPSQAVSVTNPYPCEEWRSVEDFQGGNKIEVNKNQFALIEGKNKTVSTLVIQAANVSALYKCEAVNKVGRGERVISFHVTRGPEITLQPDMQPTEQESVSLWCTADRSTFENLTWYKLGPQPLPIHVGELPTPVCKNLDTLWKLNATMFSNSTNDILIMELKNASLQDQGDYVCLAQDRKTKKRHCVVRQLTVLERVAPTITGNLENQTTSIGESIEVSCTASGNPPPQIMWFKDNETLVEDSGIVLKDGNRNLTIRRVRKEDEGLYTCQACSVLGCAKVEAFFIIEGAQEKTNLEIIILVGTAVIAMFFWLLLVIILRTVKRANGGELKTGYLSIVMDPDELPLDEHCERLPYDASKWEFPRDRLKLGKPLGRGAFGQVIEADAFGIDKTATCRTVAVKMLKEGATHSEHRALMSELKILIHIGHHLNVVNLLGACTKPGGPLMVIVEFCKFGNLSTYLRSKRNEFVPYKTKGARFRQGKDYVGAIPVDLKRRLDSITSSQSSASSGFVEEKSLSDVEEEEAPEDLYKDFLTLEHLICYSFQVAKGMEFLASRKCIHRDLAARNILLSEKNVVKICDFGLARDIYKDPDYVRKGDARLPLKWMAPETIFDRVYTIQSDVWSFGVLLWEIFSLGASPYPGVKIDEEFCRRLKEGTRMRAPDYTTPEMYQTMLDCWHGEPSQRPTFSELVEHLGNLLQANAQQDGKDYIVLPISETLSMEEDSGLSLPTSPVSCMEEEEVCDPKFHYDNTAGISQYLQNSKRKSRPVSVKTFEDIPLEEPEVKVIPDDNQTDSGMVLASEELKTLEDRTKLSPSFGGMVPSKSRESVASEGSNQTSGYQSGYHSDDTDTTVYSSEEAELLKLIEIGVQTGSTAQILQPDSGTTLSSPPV

Take `Nc1nccnc1C(=O)Nc1ccncc1N1CCCC(N)C1` (centres unmarked) [Example 173, 3-amino-N-[3-(3-aminopiperidin-1-yl)pyridin-4-yl]pyrazine-2-carboxamide]: the 50% inhibitory concentration (IC50) was under 1 µM at Pim2 kinase; under 1 µM on Pim3 kinase; 10 to 25 µM against KDR kinase; under 1 µM on Pim1 kinase; under 1000 nM in experiment [1]. The half-maximal effective concentration (EC50) in the experiment on HEL 92.1.7 cells was in the range of 1 to 5 µM; in the experiment on PC3 cells, 5 to 10 µM.
As to `Nc1nccnc1C(=O)Nc1cnccc1N1CCC[C@H](N)C1` [Example 176], the IC50 is under 1 µM at Pim2 kinase, under 1 µM on Pim3 kinase, 1 to 10 µM against KDR kinase and under 1000 nM in [1]. In addition, the concentration giving a half-maximal response (EC50) in the experiment with HEL 92.1.7 cells and in the experiment on PC3 cells was 1 to 5 µM each time.
Take `Nc1ccc(-c2c(F)cccc2F)nc1C(=O)Nc1cnccc1N1CC[C@H](F)[C@@H](N)C1` [Example 276, 3-Amino-6-(2,6-difluoro-phenyl)-pyridine-2-carboxylic acid (3-amino-4-fluoro-3,4,5,6-tetrahydro-2H-[1,4′]bipyridinyl-3′-yl)-amide]: the IC50 at Pim2 kinase, at Pim3 kinase and on Pim1 kinase was under 1 µM each time. The results for the EC50 in [2] and in [3] were 1 to 5 µM and 5 to 10 µM, respectively.
For the molecule `Nc1ccc(-c2c(F)cccc2F)nc1C(=O)Nc1cnccc1N1CCCC2(CCNC2)C1` (centres unmarked) [Example 290, 3-Amino-6-(2,6-difluoro-phenyl)-pyridine-2-carboxylic acid [4-(2,7-diaza-spiro[4.5]dec-7-yl)-pyridin-3-yl]-amide], the 50% inhibitory concentration (IC50) at Pim2 kinase, on Pim3 kinase and on Pim1 kinase was under 1 µM throughout. Moreover, the half-maximal effective concentration (EC50) in [2] and in experiment [3] was 1 to 5 µM in each case.
Regarding `CC(C)NC(=O)c1ccc(F)c(-c2ccc(N)c(C(=O)Nc3cnccc3N3C[C@@H](N)C[C@@H](F)C3)n2)c1` [Example 292, 3-Amino-6-(2-fluoro-5-isopropylcarbamoyl-phenyl)-pyridine-2-carboxylic acid (3-amino-5-fluoro-3,4,5,6-tetra-hydro-2H-[1,4′]bipyridinyl-3′-yl)-amide], the IC50 at Pim2 kinase, on Pim3 kinase and on Pim1 kinase was under 1 µM each time. In addition, the EC50 in experiment [2] and in experiment [3] was under 1 µM throughout.
For `CO[C@@H]1C[C@H](N)CN(c2ccncc2NC(=O)c2nc(-c3cc(C(=O)NC(C)C)ccc3F)ccc2N)C1` [Example 298, 3-Amino-6-(2-fluoro-5-isopropylcarbamoyl-phenyl)-pyridine-2-carboxylic acid (3-amino-5-methoxy-3,4,5,6-tetra-hydro-2H-[1,4′]bipyridinyl-3′-yl)-amide], the half-maximal inhibitory concentration (IC50) at Pim2 kinase, at Pim3 kinase and on Pim1 kinase was under 1 µM each time. Besides, the EC50 in experiment [2] and in experiment [3] was under 1 µM in each case.
Consider `CCOc1ccc(Cl)c(-c2ccc(N)c(C(=O)Nc3cnccc3N3CCC[C@H](N)C3)n2)c1` [Example 322, 3-amino-6-(2-chloro-5-ethoxy-phenyl)-pyridine-2-carboxylic acid ((S)-3-amino-3,4,5,6-tetrahydro-2H-[1,4′]bi-pyridinyl-3′-yl)-amide], for which the IC50 is under 1 µM on Pim2 kinase; under 1 µM at Pim3 kinase; over 25 µM at KDR kinase; under 1 µM at Pim1 kinase; 1000 to 10000 nM in [1]. The EC50 is under 1 µM in the experiment on HEL 92.1.7 cells and 5 to 10 µM with PC3 cells.
With `Nc1ccc(-c2cc(C(=O)Nc3ccccc3)ccc2F)nc1C(=O)Nc1cnccc1N1CCC[C@H](N)C1` [Example 323, 3-amino-6-(2-fluoro-5-phenylcarbamoyl-phenyl)-pyridine-2-carboxylic acid ((S)-3-amino-3,4,5,6-tetra-hydro-2H-[1,4′]bipyridinyl-3′-yl)-amide], the concentration for half-maximal inhibition (IC50) on Pim2 kinase, at Pim3 kinase and at Pim1 kinase was under 1 µM each time. The EC50 in the experiment on HEL 92.1.7 cells was under 1 µM; with PC3 cells, 1 to 5 µM.
For the molecule `N#Cc1ccccc1-c1cnc(N)c(C(=O)Nc2cnccc2N2CCCC(N)C2)n1` (centres unmarked) [Example 345, 3-amino-6-(2-cyano-phenyl)-pyrazine-2-carboxylic acid (3-amino-3,4,5,6-tetrahydro-2H-[1,4′]bipyridinyl-3′-yl)-amide], the IC50 is under 1 µM on Pim2 kinase; under 1 µM on Pim3 kinase; under 1 µM on KDR kinase; under 1 µM on Pim1 kinase; under 1000 nM in [1]. Also, the EC50 in the experiment with HEL 92.1.7 cells and in the experiment with PC3 cells was under 1 µM in each case.
As to `Nc1ncc(-c2ccccc2C(F)(F)F)nc1C(=O)Nc1cnccc1N1CCCC(N)C1` (centres unmarked) [Example 348, 3-amino-6-(2-trifluoromethyl-phenyl)-pyrazine-2-carboxylic acid (3-amino-3,4,5,6-tetra-hydro-2H-[1,4′]bipyridinyl-3′-yl)-amide], the figures for the IC50 (on Pim3 kinase; at Pim1 kinase; in [1]) were under 1 µM, under 1 µM and under 1000 nM, respectively. Besides, the concentration for a half-maximal effect (EC50) is under 1 µM in the experiment on HEL 92.1.7 cells and 1 to 5 µM with PC3 cells.
Consider `COc1ccncc1-c1ccc(N)c(C(=O)Nc2cnccc2N2CCC[C@H](N)C2)n1` [Example 421, 5-amino-4′-methoxy-[2,3′]bi-pyridinyl-6-carboxylic acid ((S)-3-amino-3,4,5,6-tetrahydro-2H-[1,4′]bipyridinyl-3′-yl)-amide], for which the IC50 on Pim2 kinase, at Pim3 kinase and on Pim1 kinase was under 1 µM in each case. Besides, the figures for the 50% effective concentration (EC50) in the experiment with HEL 92.1.7 cells and in the experiment with PC3 cells were 1 to 5 µM and over 10 µM, respectively.
As for `Nc1ccc(-c2ccncc2Cl)nc1C(=O)Nc1cnccc1N1CCC[C@H](N)C1` [Example 422, 5-amino-3′-chloro-[2,4′]bi-pyridinyl-6-carboxylic acid ((S)-3-amino-3,4,5,6-tetrahydro-2H-[1,4′]bipyridinyl-3′-yl)-amide], the IC50 on Pim2 kinase is under 1 µM; on Pim3 kinase it was under 1 µM; on KDR kinase, over 25 µM; at Pim1 kinase it was under 1 µM; in [1], 10000 to 25000 nM. Further, the figures for the 50% effective concentration (EC50) in the experiment on HEL 92.1.7 cells and in the experiment with PC3 cells were 1 to 5 µM and over 10 µM, respectively.
With `Nc1ccc(-c2cccc(F)c2F)nc1C(=O)Nc1cnccc1N1CCC[C@H](N)C1` [Example 424, 3-amino-6-(2,3-difluoro-phenyl)-pyridine-2-carboxylic acid ((S)-3-amino-3,4,5,6-tetrahydro-2H-[1,4′]bipyridinyl-3′-yl)-amide], the IC50 on Pim2 kinase was under 1 µM; on Pim3 kinase, under 1 µM; on KDR kinase, over 25 µM; at Pim1 kinase, under 1 µM; in experiment [1], 1000 to 10000 nM. In addition, the concentration for a half-maximal effect (EC50) in the experiment with HEL 92.1.7 cells lay within 1 to 5 µM; with PC3 cells, 5 to 10 µM.
Regarding `N[C@H]1CCCN(c2ccncc2NC(=O)c2ccc(F)c(-c3c(F)cccc3F)n2)C1` [Example 445], the half-inhibitory concentration (IC50) at Pim3 kinase and on Pim1 kinase was under 1 µM throughout. In addition, the EC50 in experiment [2] and in experiment [3] was 1 to 5 µM throughout.
